Source: patent US6872725B2, “Solid-state forms of N-(2-hydroxyacetyl)-5-(4-piperidyl)-4-(4-pyrimidinyl)-3-(4-chlorophenyl) pyrazole” (Pharmacia Corporation, priority 2001, dated 2005)

Assays:
[1] = physical stability of solid-state forms at ambient temperatures; type: physicochemical; details: compared with the other solid-state forms of Compound 1
Source text: In one embodiment, the invention comprises the Form I polymorph of Compound 1. […] Similarly, selection of a solid-state form of Compound 1 that is physically stable over a wide range of storage conditions (especially considering the different possible storage conditions that can occur during the lifetime of a Compound 1 product) can help avoid polymorphic or other degradative changes in the Compound 1 that can lead to product loss or deterioration of product efficacy.

[2] = slurry conversion of dihydrate crystals to Form I polymorph in tetrahydrofuran/water; type: physicochemical; details: 80:20 tetrahydrofuran/water mixture (volume basis), 25° C.
Method: The dihydrate crystalline form of Compound 1 also can be prepared, for example, by slurry conversion of the Form II polymorph in a tetrahydrofuran/water mixture. A sufficient amount of the Form II polymorph is added to an 80:20 tetrahydrofuran/water mixture (volume basis) to form a saturated solution at 25° C. The solution then spontaneously desaturates by precipitating dihydrate crystals. Once precipitated, the dihydrate crystals eventually convert to the more thermodynamically stable Form I polymorph.

Structure (SMILES) | physical stability at ambient temperatures [1] | time before conversion to the more thermodynamically stable Form I polymorph [2]
O=C(CO)N1CCC(c2[nH]nc(-c3ccc(Cl)cc3)c2-c2ccncn2)CC1 [Form I polymorph, N-(2-hydroxyacetyl)-5-(4-piperidyl)-4-(4-pyrimidinyl)-3-(4-chlorophenyl)pyrazole] | greater physical stability at ambient temperatures than the other solid-state forms of Compound 1 | 
O=C(CO)n1nc(-c2ccc(Cl)cc2)c(-c2ccncn2)c1C1CCNCC1 [dihydrate crystalline form, N-(2-hydroxyacetyl)-5-(4-piperidyl)-4-(4-pyrimidinyl)-3-(4-chlorophenyl)pyrazole] |  | does not take place for about four days
